Assay results as given in US10577373B2, “TYK2 inhibitors and uses thereof” (Nimbus Lakshmi, Inc., priority 2017, dated 2020).
Where two headings read alike, the source gives them in different places.

Key:
[1] = tested on: GM-CSF induced STAT5 phosphorylation mediated by the JAK2/JAK2 homdimeric complex; assay: GM-CSF Induced pSTAT5 in Human PBMC; details: GM-CSF 5 ng/mL for 20 minutes, pSTAT5
Excerpt: Human PBMC are isolated from buffy coat and are stored frozen for assays as needed.

[2] = tested on: IL-12 induced STAT4 phophorylation mediated by Tyk2/JAK2 (heterodimeric complex); assay: IL-12 Induced pSTAT4 in Human PBMC; type: cell-based; details: 1.7 ng/mL IL-12
Excerpt: The IL-12 Induced pSTAT4 assay evaluates the inhibition of IL-12 induced STAT4 phophorylation mediated by Tyk2/JAK2 (heterodimeric complex).

[3] = Homo sapiens, PBMC, 20 min, read-out: PBMC_GMCSF_pSTAT5 IC50, human PBMC
[4] = read-out: PBMC_GMCSF_pSTAT5 IC50, human PBMC

Row | IC50 [1, 3] [µM] | IC50 [2] [µM] | IC50 [1, 4] [µM] | Compound
1 |  | < 0.1 |  | CNc1cc(Nc2cccn([C@@H]3CC[C@H]3O)c2=O)nc2c(C(=O)N[C@@H]3CC[C@H]3OC)cnn12 [I-1309]
2 |  | < 0.1 |  | CNc1cc(-c2cn(C3CCOCC3)c3ncc(F)cc23)nc2c(C(=O)N[C@H]3CC[C@@H]3O)cnn12 [I-1314]
3 |  | < 0.1 |  | CNc1cc(Nc2cccn(-c3nn(C)cc3F)c2=O)nc2c(C(=O)N[C@@H]3C[C@@H]3F)cnn12 [I-1321]
4 |  | < 0.1 |  | CNC(=O)c1occc1Nc1cc(NC)n2ncc(C(=O)N[C@H]3CC[C@@H]3OC)c2n1 [I-1323]
5 |  | < 0.1 |  | CNc1cc(-c2cn(C3CC3)c3ncccc23)nc2c(C(=O)N[C@H]3CC[C@@H]3OC)cnn12 [I-1325]
6 |  | < 0.1 |  | CNc1cc(-c2cn(C3CCOCC3)c3ncccc23)nc2c(C(=O)N[C@@H]3CC[C@H]3OC)cnn12 [I-1328]
7 |  | < 0.1 |  | CNc1cc(Nc2cccn([C@@H]3CCC[C@@H](OC)C3)c2=O)nc2c(C(=O)N[C@H]3CC[C@@H]3OC)cnn12 [I-1331]
8 |  | < 0.1 |  | CNc1cc(Nc2cccn([C@@H]3CCN(CCF)C3)c2=O)nc2c(C(=O)N[C@@H]3CC[C@H]3OC)cnn12 [I-1333]
9 |  | < 0.1 |  | CNc1cc(Nc2cccn3cnnc23)nc2c(C(=O)N[C@H]3CC[C@@H]3OC)cnn12 [I-1343]
10 |  | < 0.1 |  | CNc1cc(Nc2cccn([C@@H]3CC[C@@H]3O)c2=O)nc2c(C(=O)N[C@@H]3CC[C@H]3OC)cnn12 [I-1350]
11 |  | < 0.1 |  | CNc1cc(Nc2cccn([C@H]3[C@@H]4COC[C@@H]43)c2=O)nc2c(C(=O)N[C@@H]3CC[C@H]3OC)cnn12 [I-1354]
12 |  | < 0.1 |  | CNc1cc(-c2cn([C@@H]3CCCOC3)c3ncccc23)nc2c(C(=O)N[C@H]3CC[C@@H]3OC)cnn12 [I-1364]
13 |  | < 0.1 |  | CNc1cc(-c2cn([C@H]3CCCOC3)c3ncccc23)nc2c(C(=O)N[C@H]3CC[C@@H]3OC)cnn12 [I-1365]
14 |  | < 0.1 |  | CNc1cc(-c2cn([C@@H]3CCN(CCF)C3)c3ncccc23)nc2c(C(=O)N[C@@H]3C[C@@H]3F)cnn12 [I-1366]
15 |  | < 0.1 |  | CNc1cc(Nc2cccn(-c3cnn(C)c3F)c2=O)nc2c(C(=O)N[C@H]3CC[C@@H]3OC)cnn12 [I-1369]
16 |  | < 0.1 |  | CNc1cc(Nc2cccn([C@H]3CCC[C@H]3O)c2=O)nc2c(C(=O)N[C@H]3CC[C@@H]3OC)cnn12 [I-1373]
17 |  | < 0.1 |  | CNc1cc(Nc2cccn([C@H]3CCC[C@H](OC)C3)c2=O)nc2c(C(=O)N[C@@H]3CC[C@H]3OC)cnn12 [I-1374]
18 |  | < 0.1 |  | CNc1cc(Nc2cccn([C@H]3CCCC[C@H]3OC)c2=O)nc2c(C(=O)N[C@H]3CC[C@@H]3OC)cnn12 [I-1377]
19 |  | < 0.1 |  | CNc1cc(Nc2cccn([C@H]3CCN(CCF)C3)c2=O)nc2c(C(=O)N[C@H]3CC[C@@H]3OC)cnn12 [I-1381]
20 |  | < 0.1 |  | CNc1cc(Nc2cccn([C@@H]3CCCN(CCF)C3)c2=O)nc2c(C(=O)N[C@H]3CC[C@@H]3OC)cnn12 [I-1382]
21 |  | < 0.1 |  | CNc1cc(Nc2cccn([C@H]3CC[C@@H]3O)c2=O)nc2c(C(=O)N[C@H]3CC[C@@H]3OC)cnn12 [I-1385]
22 |  | < 0.1 |  | CNc1cc(-c2cn(CCCO)c3ncccc23)nc2c(C(=O)N[C@H]3CC[C@@H]3OC)cnn12 [I-1388]
23 |  | < 0.1 |  | CNc1cc(Nc2cccn(C3CC(F)(F)C3)c2=O)nc2c(C(=O)N[C@H]3CC[C@@H]3OC)cnn12 [I-1389]
24 |  | < 0.1 |  | CNc1cc(Nc2cccn([C@H]3CCC[C@H](O)C3)c2=O)nc2c(C(=O)N[C@@H]3CC[C@H]3OC)cnn12 [I-1395]
25 |  | < 0.1 |  | CNc1cc(Nc2cccn([C@@H]3CC[C@@H]3O)c2=O)nc2c(C(=O)N[C@H]3CC[C@@H]3OC)cnn12 [I-1411]

Second part, the molecule before the results:

Row | Compound | IC50 [1, 3] [µM] | IC50 [2] [µM] | IC50 [1, 4] [µM]
26 | CNc1cc(Nc2cccn(C3CCCOC3)c2=O)nc2c(C(=O)NC3CCC3)cnn12 (racemic) [I-324] | > 50 | < 0.1 | 
27 | CNc1cc(Nc2cccc3ocnc23)nc2c(C(=O)N[C@@H]3CC[C@H]3O)cnn12 (racemic) [I-756, 5-(benzo[d]oxazol-4-ylamino)-N-(2-hydroxycyclobutyl)-7-(methylamino) pyrazolo[1,5-a]pyrimidine-3-carboxamide] | > 50 | 0.1 to 0.5 | 
28 | CNc1cc(Nc2cccn(-c3ccn(C4CC4)n3)c2=O)nc2c(C(=O)N[C@@H]3C[C@@H]3F)cnn12 (stereo in doubt) [I-106, 5-((1-(1-cyclopropyl-1H-pyrazol-3-yl)-2-oxo-1,2-dihydropyridin-3-yl)amino)-N-((1R,2S)-2-fluorocyclopropyl)-7-(methylamino)pyrazolo[1,5-a]pyrimidine-3-carboxamide] | > 12.5 | < 0.1 | 
29 | CNc1cc(Nc2cccn(-c3ccnc(C)n3)c2=O)nc2c(C(=O)N[C@@H]3C[C@@H]3F)cnn12 (stereo in doubt) [I-124, N-((1R,2S)-2-fluorocyclopropyl)-7-(methylamino)-5-((1-(2-methylpyrimidin-4-yl)-2-oxo-1,2-dihydropyridin-3-yl)amino)pyrazolo[1,5-a]pyrimidine-3-carboxamide] | > 12.5 | < 0.1 | 
30 | CNc1cc(-c2cn(C(C)C)c3ncccc23)nc2c(C(=O)N[C@@H]3C[C@@H]3F)cnn12 (stereo in doubt) [I-225, N-((1R,2S)-2-fluorocyclopropyl)-5-(1-isopropyl-1H-pyrrolo[2,3-b]pyridin-3-yl)-7-(methylamino)pyrazolo[1,5-a]pyrimidine-3-carboxamide] | > 50 | < 0.1 | 
31 | CNc1cc(Nc2cccnc2OC)nc2c(C(=O)N[C@@H]3CC[C@H]3O)cnn12 (stereo in doubt) [I-363, N-((1R,2R)-2-hydroxycyclobutyl)-5-((2-methoxypyridin-3-yl)amino)-7-(methylamino)pyrazolo[1,5-a]pyrimidine-3-carboxamide] |  | < 0.1 | > 50
32 | CNc1cc(Nc2cccnc2OC2CC2)nc2c(C(=O)NC3CCC3O)cnn12 (stereo in doubt) [I-366, 5-((2-cyclopropoxypyridin-3-yl)amino)-N-((1R,2R)-2-hydroxycyclobutyl)-7-(methylamino)pyrazolo[1,5-a]pyrimidine-3-carboxamide] | > 50 | < 0.1 | 
33 | [2H]C([2H])([2H])Nc1cc(Nc2cccnc2OC)nc2c(C(=O)N[C@@H]3C[C@@H]3F)cnn12 (stereo in doubt) [I-374, N-((1R,2S)-2-fluorocyclopropyl)-5-((2-methoxypyridin-3-yl)amino)-7-((methyl-d3)amino)pyrazolo[1,5-a]pyrimidine-3-carboxamide] | > 50 | < 0.1 | 
34 | [2H]C([2H])([2H])Nc1cc(Nc2cccnc2OC2CC2)nc2c(C(=O)N[C@@H]3C[C@@H]3F)cnn12 (stereo in doubt) [I-375, 5-((2-cyclopropoxypyridin-3-yl)amino)-N-((1R,2S)-2-fluorocyclopropyl)-7-((methyl-d3)amino)pyrazolo[1,5-a]pyrimidine-3-carboxamide] | > 50 | < 0.1 | 
35 | COc1ncccc1Nc1cc(NCCCN2CCOCC2)n2ncc(C(=O)N[C@@H]3C[C@@H]3F)c2n1 (stereo in doubt) [I-377, N-((1R,2S)-2-fluorocyclopropyl)-5-((2-methoxypyridin-3-yl)amino)-7-((3-morpholinopropyl)amino)pyrazolo[1,5-a]pyrimidine-3-carboxamide] | > 50 | 0.1 to 0.5 | 
36 | [2H]C([2H])([2H])Oc1ncccc1Nc1cc(NC)n2ncc(C(=O)N[C@@H]3CC[C@@H]3O)c2n1 (stereo in doubt) [I-391, N-(2-hydroxycyclobutyl)-5-((2-(methoxy-d3)pyridin-3-yl)amino)-7-(methylamino)pyrazolo[1,5-a]pyrimidine-3-carboxamide] |  | < 0.1 | > 50
37 | [2H]C([2H])([2H])Oc1ncccc1Nc1cc(NC)n2ncc(C(=O)N[C@H]3CC[C@H]3O)c2n1 (stereo in doubt) [I-399, N-((1 S,2R)-2-hydroxycyclobutyl)-5-((2-(methoxy-d3)pyridin-3-yl)amino)-7-(methylamino) pyrazolo[1,5-a]pyrimidine-3-carboxamide] |  | < 0.1 | > 12.5
38 | CNc1cc(-c2cn(C(C)C)c3ncccc23)nc2c(C(=O)N[C@@H]3CC[C@H]3O)cnn12 (stereo in doubt) [I-586, N-((1R,2R)-2-hydroxycyclobutyl)-5-(1-isopropyl-1H-pyrrolo[2,3-b]pyridin-3-yl)-7-(methylamino)pyrazolo[1,5-a]pyrimidine-3-carboxamide] |  | < 0.1 | > 50
39 | CNc1cc(Nc2cccn(-c3nc(C)co3)c2=O)nc2c(C(=O)N[C@@H]3CC[C@H]3O)cnn12 (stereo in doubt) [I-658, N-((1R,2R)-2-hydroxycyclobutyl)-7-(methylamino)-5-((1-(4-methyloxazol-2-yl)-2-oxo-1,2-dihydropyridin-3-yl)amino)pyrazolo[1,5-a]pyrimidine-3-carboxamide] | > 50 | < 0.1 | 
40 | CNc1cc(Nc2cccn(-c3ncccc3F)c2=O)nc2c(C(=O)O)cnn12 [I-893, 5-((3′-fluoro-2-oxo-2H-[1,2′-bipyridin]-3-yl)amino)-7-(methylamino) pyrazolo[1,5-a]pyrimidine-3-carboxylic acid] |  | > 1 | 
41 | CNc1cc(Nc2cccn([C@H]3CCCN(CCF)C3)c2=O)nc2c(C(=O)N[C@@H]3C[C@@H]3F)cnn12 [I-900] |  | < 0.1 | 
42 | CNc1cc(Nc2cccn3ccnc23)nc2c(C(=O)N[C@@H]3CC[C@H]3OC)cnn12 [I-1133] |  | < 0.1 | 
43 | CNc1cc(-c2cn([C@H]3CCCOC3)c3ncccc23)nc2c(C(=O)N[C@H]3CC[C@@H]3OC)cnn12 [I-1283] |  | < 0.1 | 
44 | CNc1cc(Nc2cccn(-c3ccccn3)c2=O)nc2c(C(=O)N[C@@H]3C[C@H]3OC)cnn12 [I-1286] |  | < 0.1 | 
45 | CNc1cc(Nc2cccn([C@H]3CCC[C@@H](O)C3)c2=O)nc2c(C(=O)N[C@H]3CC[C@@H]3OC)cnn12 [I-1296] |  | < 0.1 | 
46 | CNc1cc(-c2cn(CCCO)c3ncccc23)nc2c(C(=O)N[C@@H]3CC[C@H]3OC)cnn12 [I-1299] |  | < 0.1 | 
